Test results published in patent US7001983B1, “Antipathogenic synthetic peptides and compositions comprising them” (priority 1997, dated 2006).
Numbered stars: 1 amine (or outer) side, 2 acyl side, 3 side chain; on linkers, the order of the positions; unused ones are H or OH. Square brackets hold non-standard residues; d marks the D form. Peptide text beside a SMILES is read from it. Ethylenediamine = C(CN[*:2])N[*:1]

Experiments:
[1] = tested on: Bacillus subtilis ATCC 6051; type: cell-based; settings: 100% inhibition of growth after 18–20 h
[2] = tested on: Bacillus megaterium Bm11; type: cell-based; settings: 100% inhibition of growth after 18–20 h
[3] = tested on: Acinetobacter calcoaceticus Ac11; type: cell-based; settings: 100% inhibition of growth after 18–20 h
[4] = tested on: Escherichia coli D21; type: cell-based; settings: 100% inhibition of growth after 18–20 h
[5] = tested on: Micrococcus Iuteus ATCC 9341; assay: Antibacterial activity (MIC), growth inhibition in LB medium; type: cell-based, Micrococcus luteus; settings: 100% inhibition of growth after 18–20 h
Procedure: (§1) (viii) Antibacterial activity of the peptides. The antibacterial activity of the diastereomers was examined in sterile 96-well plates (Nunc F96 microtiter plates) in a final volume of 100 μL as follows: Aliquots (50 μl) of a suspension containing bacteria at a concentration of 10^6 Colony-Forming Units (CFU)/ml LB (Lauria broth) medium were added to 50 μL of water or 66% pooled normal human serum in PBS, containing the peptide in 2-fold serial dilutions. Growth inhibition was determined by measuring the absorbance at 492 nm with a Microplate autoreader E1309 (Bio-tek Instruments), following incubation for 18–20 h at 37° C. […] The bacteria used were: Escherichia coli D21, Pseudomonas aeruginosa ATCC 27853, Acinetobacter calcoaceticus Ac11, Salmonella typhimurium LT2, Bacillus megaterium Bm11, Micrococcus Iuteus ATCC 9341, Bacillus subtilis ATCC 6051.

[6] = tested on: human red blood cells (hRBC); assay: Hemolysis of human red blood cells; type: cell-based; settings: hRBC; for % hemolysis at 50 μM peptide: 30 min at 37° C.
Procedure: (ix) Hemolysis of human red blood cells. The peptides were tested for their hemolytic activities against human red blood cells (hRBC). Fresh hRBC with EDTA were rinsed 3 times with PBS (35 mM phosphate buffer/0.15 M NaCl, pH 7.3) by centrifugation for 10 min at 800 g and resuspended in PBS. Peptides dissolved in PBS were then added to 50 μL of a solution of the stock hRBC in PBS to reach a final volume of 100 μL (final erythrocyte concentration, 5% v/v). The resulting suspension was incubated under agitation for 30 min at 37° C. The samples were then centrifuged at 800 g for 10 min. Release of hemoglobin was monitored by measuring the absorbance of the supernatant at 540 nm. Controls for zero hemolysis (blank) and 100% hemolysis consisted of hRBC suspended in PBS and Triton 1%, respectively.

[7] = tested on: Pseudomonas aeruginosa ATCC 27853; settings: 100% inhibition of growth after 18–20 h
Procedure: (viii) Antibacterial activity of the peptides.
Antibacterial activity of the mixtures was determined as described in Experimental procedures, section (xii).

[8] = tested on: Salmonella typhimurium LT2; assay: Antibacterial activity (MIC), growth inhibition in LB medium; type: cell-based; settings: 100% inhibition of growth after 18–20 h
Procedure: as §1

CC[C@H](C)[C@H](NC(=O)[C@H](CCCCN)NC(=O)[C@H]1CCCN1C(=O)[C@@H](NC(=O)[C@H](CC(C)C)NC(=O)[C@H](C)NC(=O)[C@H](Cc1ccccc1)NC(=O)[C@H](Cc1ccccc1)NC(=O)CN)[C@@H](C)CC)C(=O)N[C@H](C(=O)N[C@@H](CO)C(=O)N[C@@H](CO)C(=O)N1CCC[C@H]1C(=O)N[C@@H](CC(C)C)C(=O)N[C@@H](Cc1ccccc1)C(=O)N[C@@H](CCCCN)C(=O)N[C@H](C(=O)N[C@@H](CC(C)C)C(=O)N[C@@H](CC(C)C)C(=O)N[C@@H](CO)C(=O)N[C@@H](C)C(=O)N[C@H](C(=O)NCC(=O)N[C@@H](CO)C(=O)N[C@@H](C)C(=O)N[C@@H](CC(C)C)C(=O)N[C@@H](CO)C(=O)N[C@@H](CO)C(=O)N[C@@H](CO)C(=O)NCC(=O)NCC(=O)N[C@@H](CCC(N)=O)C(=O)N[C@@H](CCC(=O)NCCN)C(=O)NCCN)C(C)C)[C@@H](C)O)[C@@H](C)CC [Peptide 12, [D]P^7-TApar]
Minimal Inhibitory Concentration B. subtilis (ATCC 6051) [1]: 2 µM
Minimal Inhibitory Concentration B. megaterium (Bm11) [2]: 1.2 µM
Minimal Inhibitory Concentration A. calcoaceticus (Ac11) [3]: 5 µM
Minimal Inhibitory Concentration E. coli (D21) [4]: 10 µM
Minimal Inhibitory Concentration M. luteus (ATCC 9341) [5]: 5 µM
% hemolysis at 50 μM peptide [6]: 49%

CC[C@H](C)[C@H](NC(=O)[C@H](CCCCN)NC(=O)[C@H]1CCCN1C(=O)[C@@H](NC(=O)[C@H](CC(C)C)NC(=O)[C@H](C)NC(=O)[C@H](Cc1ccccc1)NC(=O)[C@H](Cc1ccccc1)NC(=O)CNC(=O)[C@H](CCCCN)NC(=O)[C@@H](N)CCCCN)[C@@H](C)CC)C(=O)N[C@H](C(=O)N[C@@H](CO)C(=O)N[C@@H](CO)C(=O)N1CCC[C@H]1C(=O)N[C@@H](CC(C)C)C(=O)N[C@@H](Cc1ccccc1)C(=O)N[C@@H](CCCCN)C(=O)N[C@H](C(=O)N[C@H](CC(C)C)C(=O)N[C@H](CC(C)C)C(=O)N[C@@H](CO)C(=O)N[C@@H](C)C(=O)N[C@H](C(=O)O)C(C)C)[C@@H](C)O)[C@@H](C)CC [Peptide 6, K^1K^2[D]P^7L^18L^19[1-22]-par]
Minimal Inhibitory Concentration P. aeruginosa (ATCC 27853) [7]: 60 µM
Minimal Inhibitory Concentration B. megaterium (Bm11) [2]: 6 µM
Minimal Inhibitory Concentration A. calcoaceticus (Ac11) [3]: 6 µM
Minimal Inhibitory Concentration E. coli (D21) [4]: 15 µM
Minimal Inhibitory Concentration S. typhimurium (LT2) [8]: 120 µM
% hemolysis at 50 μM peptide [6]: 0%

CC[C@@H](C)[C@@H](NC(=O)[C@H](CC(C)C)NC(=O)[C@H](C)NC(=O)[C@@H]1CCCN1C(=O)[C@H](CC(C)C)NC(=O)CNC(=O)[C@@H](NC(=O)[C@@H](NC(=O)[C@H](CC(C)C)NC(=O)[C@H](NC(=O)[C@H](CCCCN)NC(=O)[C@H](CC(C)C)NC(=O)[C@H](NC(=O)[C@H](C)NC(=O)CNC(=O)[C@@H](NC(=O)CN)[C@@H](C)CC)C(C)C)C(C)C)[C@@H](C)O)[C@@H](C)O)C(=O)N[C@@H](CO)C(=O)N[C@@H](Cc1c[nH]c2ccccc12)C(=O)N[C@H](C(=O)N[C@H](CCCCN)C(=O)N[C@@H](CCCNC(=N)N)C(=O)N[C@@H](CCCCN)C(=O)N[C@@H](CCCNC(=N)N)C(=O)N[C@@H](CCC(N)=O)C(=O)N[C@@H](CCC(N)=O)C(=O)O)[C@@H](C)CC [Peptide 19, [D]-V^5V^8I^17K^21-mel-COOH]
Minimal Inhibitory Concentration B. subtilis (ATCC 6051) [1]: 8 µM
Minimal Inhibitory Concentration B. megaterium (Bm11) [2]: 1.2 µM
Minimal Inhibitory Concentration A. calcoaceticus (Ac11) [3]: 18 µM
Minimal Inhibitory Concentration E. coli (D21) [4]: 18 µM
Minimal Inhibitory Concentration M. luteus (ATCC 9341) [5]: 50 µM
% hemolysis at 50 μM peptide [6]: 0%
hemolytic activity up to the maximum concentration tested ([6]; up to 50 μM): practically devoid of hemolytic activity

CC[C@H](C)[C@H](NC(=O)[C@H](CCCCN)NC(=O)[C@H]1CCCN1C(=O)[C@@H](NC(=O)[C@H](CC(C)C)NC(=O)[C@H](C)NC(=O)[C@H](Cc1ccccc1)NC(=O)[C@H](Cc1ccccc1)NC(=O)CN)[C@@H](C)CC)C(=O)N[C@H](C(=O)N[C@@H](CO)C(=O)NCCN)[C@@H](C)CC [Peptide 7, [D]P^7-[1-11]-TApar] (H-GFFALI[dP]KIIS-Ethylenediamine; N-terminus assumed)
Minimal Inhibitory Concentration P. aeruginosa (ATCC 27853) [7]: >120 µM
Minimal Inhibitory Concentration B. megaterium (Bm11) [2]: 30 µM
Minimal Inhibitory Concentration A. calcoaceticus (Ac11) [3]: >120 µM
Minimal Inhibitory Concentration E. coli (D21) [4]: >120 µM
Minimal Inhibitory Concentration S. typhimurium (LT2) [8]: >120 µM
% hemolysis at 50 μM peptide [6]: 0%
